Results published in PMC9686653, “Bioengineered Nisin A Derivatives Display Enhanced Activity against Clinical Neonatal Pathogens” (Antibiotics, 2022).
Values after ≈ are worked out from the molar mass of the structure shown. “Also recorded” adds a separate entry of the source. Read-outs that look alike come from different tables or passages of the source. Marks after values point to notes of the source that are not given here.

Legend:
S. capitis AY41 = assay: microbe, parasite or virus in culture; assay type: cell-based, Staphylococcus capitis; conditions: for MIC: 16 h
Description: (§1) MIC determinations were carried out in triplicate in 96-well microtiter plates (Sarstedt, Newton, NC, USA) as previously described. Initially, 200µL of 1% bovine serum albumin (BSA) (Sigma-Aldrich, St. Louis, MO, USA) (in PBS) was added to the plates which were incubated at 37 °C for 30 min. The solution was removed, plates were washed with 200 µL PBS and then air dried in a laminar flow hood. Target strains (Streptococcus agalactiae, Staphylococcus capitis and Lactococcus lactis) were grown overnight in suitable media under appropriate conditions and were subsequently sub-cultured into fresh broth and allowed to grow to an optical density of ~0.5 (OD600). The culture was then diluted to a final concentration of 10^5 CFU mL^−1 in a volume of 1 mL. The peptides were resuspended in appropriate media to a stock concentration of […] (S. agalactiae and S. capitis strains) and […] (L. lactis strains). Nisin A and nisin derivatives were adjusted to a starting concentration of 15 µM (S. agalactiae and S. capitis strains) or 5 µM (L. lactis strains). […] An aliquot of 100 µL of peptides and or antibiotics were added to the first well, mixed and then 2-fold serial dilutions of each peptide were made in TSBYE broth. Then, 100 µL of target strain was added to each test well, and the plates were incubated at 30 °C or 37 °C for 16 h. The MIC was read as the lowest peptide concentration causing inhibition of visible growth. Experiments were performed in triplicate.

S. agalactiae CIT 239 = assay: Broth MIC assay; assay type: cell-based, Streptococcus agalactiae; conditions: Streptococcus agalactiae, CIT239; broth microdilution in TSBYE, 10^5 CFU/mL, 16 h, 37 °C; average of three independent biological repeats; read-out: MIC
Description: as §1

S. agalactiae CIT 364 = assay: Broth MIC assay; assay type: cell-based, Streptococcus agalactiae; conditions: Streptococcus agalactiae, CIT364; broth microdilution in TSBYE, 10^5 CFU/mL, 16 h, 37 °C; average of three independent biological repeats; read-out: MIC
Description: as §1

S. agalactiae CIT 67 = assay: Broth MIC assay; assay type: cell-based, Streptococcus agalactiae; conditions: for MIC: Streptococcus agalactiae, CIT67, broth microdilution in TSBYE, 10^5 CFU/mL, 16 h, 37 °C, average of three independent biological repeats, read-out: MIC
Description: as §1

S. agalactiae CIT 85 = assay: Broth MIC assay; assay type: cell-based, Streptococcus agalactiae; conditions: for MIC: Streptococcus agalactiae, CIT85, broth microdilution in TSBYE, 10^5 CFU/mL, 16 h, 37 °C, average of three independent biological repeats, read-out: MIC
Description: as §1

S. agalactiae CIT 87 = assay: Broth MIC assay; assay type: cell-based, Streptococcus agalactiae; conditions: Streptococcus agalactiae, CIT87; broth microdilution in TSBYE, 10^5 CFU/mL, 16 h, 37 °C; average of three independent biological repeats; read-out: MIC
Description: as §1

S. capitis AR18 = assay: Broth MIC assay; assay type: cell-based; conditions: Staphylococcus capitis, AR18; broth microdilution in TSBYE, 10^5 CFU/mL, 16 h, 37 °C; average of three independent biological repeats; read-out: MIC
Description: as §1

S. capitis AV80 [1] = assay: Broth MIC assay; assay type: cell-based; conditions: Staphylococcus capitis, AV80; broth microdilution in TSBYE, 10^5 CFU/mL, 16 h, 37 °C; average of three independent biological repeats; read-out: MIC
Description: as §1

S. capitis strains = assay: Broth MIC assay, summary over isolates; assay type: cell-based, Staphylococcus capitis
Description: as §1, with “Then, 100 µL of target strain was added to each test well, and the plates were incubated at 30 °C or 37 °C for 16 h.” left out, “Experiments were performed in triplicate.” left out

S. capitis BD01 = assay: Broth MIC assay; assay type: cell-based, Staphylococcus capitis; conditions: Staphylococcus capitis, BD01; broth microdilution in TSBYE, 10^5 CFU/mL, 16 h, 37 °C; average of three independent biological repeats; read-out: MIC
Description: as §1

S. capitis BA06 = assay: Broth MIC assay; assay type: cell-based, Staphylococcus capitis
Description: as §1

S. agalactiae strains = assay: Broth MIC assay, summary over isolates; assay type: cell-based, Streptococcus agalactiae
Description: as §1

S. capitis AV80 [2] = assay: Time-kill curve analysis; assay type: cell-based, Staphylococcus capitis; conditions: nisin peptides […] (1/4 MIC), ampicillin 3.75 µg/mL (1/4 MIC); re-growth after 6 h
Description: The means and standard deviations of three independent determinations are presented.
During incubation, 100µL of each sample was taken at 0, 2, 4, 6 and 24 h. Cell growth was assessed by performing viable cell counts by diluting cultures in PBS solution and enumeration on TSBYE plates. Synergism was defined as ≥2 log10 CFU/mL reduction with the combination of antimicrobials relative to either antimicrobial alone after 24 h. A 1–2 log10 reduction in CFU/mL was defined as an additive effect and an increase or decrease of <1 log10 was defined as an indifferent effect. An antagonistic effect was defined as >2 log10 increase in CFU/mL after 24 h [28]. Experiments were performed in triplicate.

[3] = tested on: clinical isolates of S. agalactiae (n = 5) and S. capitis (n = 5); assay: Deferred antagonism agar-based assay; assay type: cell-based, Streptococcus agalactiae, Staphylococcus capitis; conditions: pathogenic indicators, n = 10
Description: All plates were supplemented with sub-inhibitory concentration (10 µg/L) of nisin in the form of nisaplin to ensure induction of the nisin mutants.
Site-saturation mutagenesis of three codons, including threonine, lysine and methionine, at positions 2, 12 and 17 of the nisA gene, was carried out as described previously. Briefly, pDF23 (pCI372-PV) was used as a template and oligonucleotides, NisT2deg-FOR and REV, NisK12deg-FOR and REV and Nis17deg-FOR and REV, containing an NNK codon potentially encoding for all twenty standard amino acids. Deferred antagonism agar-based assays were employed to assess the bioactivity of the nisin derivatives (PV, K12X-PV, T2X-PV, and M17X-PV) produced by each strain. Briefly, fresh overnight cultures of each L. lactis test culture was replicated on GM17/TSBYE agar plates containing 0.1% nisaplin using a 96-pin replicator (Boekel, Feasterville, PA, USA) and incubated overnight at 30 °C before being exposed to ultraviolet radiation for 45 min. The plates were then overlayed with GM17/TYSBYE agar (0.75% agar) and seeded (0.5% inoculum) with either Lactococcus lactis MG1614 (NSR-), the nisin resistance protein-expressing indicator strain L. lactis MG1614 pNP40 (NSR+) or TSBYE agar seeded with Staphylococcus capitis (NSR+) or Streptococcus agalactiae (NSR+) isolates. […]

[4] = tested on: nisin resistance protein (NSR); conditions: cited from earlier work

For `CNC(C)C1CCC(N)C(OC2C(N)CC(N)C(OC3OCC(C)(O)C(NC)C3O)C2O)O1` (centres unmarked) [Gentamicin, gentamicin], the MIC (S. capitis AY41; Staphylococcus capitis, AY41, broth microdilution in TSBYE, 10^5 CFU/mL, 37 °C, average of three independent biological repeats, read-out: MIC) was 0.39 µg/mL (≈ 0.817 µM), the MIC (S. agalactiae CIT 239) was 25 µg/mL (≈ 52.3 µM) and the MIC (S. agalactiae CIT 364) was 25 µg/mL (≈ 52.3 µM). For the same compound, the MIC (S. agalactiae CIT 67) was 25 µg/mL (≈ 52.3 µM), the MIC (S. agalactiae CIT 85) was 6.25 µg/mL (≈ 13.1 µM) and the MIC (S. agalactiae CIT 87) was 25 µg/mL (≈ 52.3 µM). The MIC (S. capitis AR18) was greater than 50 µg/mL, the MIC (S. capitis AV80 [1]) was greater than 50 µg/mL and the MIC (S. capitis strains; Staphylococcus capitis, span over the isolates the sentence refers to (four or all five)) was greater than 50 µg/mL. It also gave an MIC (S. capitis BD01) greater than 50 µg/mL and an MIC (S. capitis BA06; Staphylococcus capitis, BA06, broth microdilution in TSBYE, 10^5 CFU/mL, 16 h, 37 °C, average of three independent biological repeats, read-out: MIC) greater than 50 µg/mL.
With `C=C(NC(=O)[C@@H](NC(=O)[C@H](Cc1c[nH]cn1)NC(=O)[C@@H](NC(=O)[C@@H]1CCCN1C(=O)[C@@H]1CS[C@@H](C)[C@H]2NC(=O)[C@H](C)NC(=O)[C@H](NC(=O)[C@H](CCCCN)NC(=O)[C@H](CCSC)NC(=O)[C@H](CC(N)=O)NC(=O)[C@@H]3CS[C@@H](C)[C@@H](NC(=O)[C@H](CCCCN)NC(=O)[C@@H]4CS[C@@H](C)[C@@H](NC(=O)[C@@H]5CSC[C@@H](NC(=O)/C(=C/C)NC(=O)[C@@H](N)[C@@H](C)CC)C(=O)N[C@@H]([C@@H](C)CC)C(=O)NC(=C)C(=O)N[C@@H](CC(C)C)C(=O)N5)C(=O)N5CCC[C@H]5C(=O)NCC(=O)N4)C(=O)NCC(=O)N[C@@H](C)C(=O)N[C@@H](CC(C)C)C(=O)N[C@@H](CCSC)C(=O)NCC(=O)N3)[C@H](C)SC[C@H](NC2=O)C(=O)N[C@@H](Cc2c[nH]cn2)C(=O)N1)C(C)C)C(C)C)C(=O)N[C@@H](CCCCN)C(=O)O` [PV] the MIC (S. capitis AY41) was 6 * µg/mL, the “fold increase in potency compared to nisin A” value (“fold increase in potency” for short) (S. capitis AY41; from MIC) was 4 fold and the “fold decrease in potency compared to nisin A” value (S. agalactiae CIT 85; from MIC) was 2 fold. The “fold increase in potency” value (S. agalactiae strains; four of the five S. agalactiae strains, from MIC) was 2 fold, the “fold more active compared to nisin A” value (S. capitis strains; some strains of S. capitis, purified peptides) was 2–4 fold and the “time-kill outcome of single treatments” value (S. capitis AV80 [2]) was “inhibited bacterial growth over 4 h”. For the same compound, the “bioactivity (zone of inhibition) of the producing strain” value ([3]; listed as nisin PV) was “improved antimicrobial activity against all strains tested; also recorded: greatest bioactivity against the majority of pathogenic indicators”, the “fold increase in potency” value (S. capitis BA06; from MIC) was 2 fold and the “susceptibility to proteolytic cleavage by NSR” value [4] was “resist proteolytic cleavage by NSR”.
For `CC1(C)S[C@@H]2[C@H](NC(=O)[C@H](N)c3ccccc3)C(=O)N2[C@H]1C(=O)O` [Ampicillin, ampicillin], the MIC (S. agalactiae CIT 239) was 0.097 µg/mL (≈ 0.278 µM), the MIC (S. agalactiae CIT 364) was 0.78 µg/mL (≈ 2.23 µM) and the MIC (S. agalactiae CIT 67) was 1.56 µg/mL (≈ 4.46 µM). The MIC (S. agalactiae CIT 85) was 0.097 µg/mL (≈ 0.278 µM), the MIC (S. agalactiae CIT 87) was 0.78 µg/mL (≈ 2.23 µM) and the MIC (S. agalactiae strains; Streptococcus agalactiae, read-out: MIC values over S. agalactiae strains, span over the isolates the sentence refers to (three, four or all five)) was 0.78 to 1.56 µg/mL (≈ 2.23 to 4.46 µM).
For `C=C(NC(=O)[C@@H](NC(=O)[C@H](Cc1c[nH]cn1)NC(=O)[C@@H](NC(=O)[C@@H]1CCCN1C(=O)[C@@H]1CS[C@@H](C)[C@H]2NC(=O)[C@H](C)NC(=O)[C@H](NC(=O)[C@H](CCCCN)NC(=O)[C@H](CCSC)NC(=O)[C@H](CC(N)=O)NC(=O)[C@@H]3CS[C@@H](C)[C@@H](NC(=O)[C@H](CCCCN)NC(=O)[C@@H]4CS[C@@H](C)[C@@H](NC(=O)[C@@H]5CSC[C@@H](NC(=O)[C@H](C)NC(=O)[C@@H](N)[C@@H](C)CC)C(=O)N[C@@H]([C@@H](C)CC)C(=O)NC(=C)C(=O)N[C@@H](CC(C)C)C(=O)N5)C(=O)N5CCC[C@H]5C(=O)NCC(=O)N4)C(=O)NCC(=O)N[C@@H](C)C(=O)N[C@@H](CC(C)C)C(=O)N[C@@H](CCSC)C(=O)NCC(=O)N3)[C@H](C)SC[C@H](NC2=O)C(=O)N[C@@H](Cc2c[nH]cn2)C(=O)N1)C(C)C)C(C)C)C(=O)N[C@@H](CCCCN)C(=O)O` [T2A-PV], the MIC (S. capitis AY41) was 12.5 * µg/mL, the “fold decrease in potency compared to nisin PV” value (S. capitis AY41; from MIC) was 2 fold and the “fold increase in potency” value (S. capitis AY41; from MIC) was 2 fold. The “fold decrease in specific activity compared to nisin A” value (S. agalactiae CIT 67; from MIC) was 2 fold, the “fold decrease in specific activity compared to nisin PV” value (S. agalactiae CIT 67; from MIC) was 4 fold and the “bioactivity (zone of inhibition) of the producing strain” value [3] was “not apparent against the pathogenic isolates”.
